Assay results as given in PMC5901744 (Science (New York, N.Y.), 2017).

Assays:
[1] = tested on: SaHEPD (hydroxyethylphosphonate dioxygenase from Streptomyces albus; class II HEPD); assay: steady-state kinetics; format: biochemical; conditions: Fe(II), O2
[2] = tested on: SaHEPD (hydroxyethylphosphonate dioxygenase from Streptomyces albus; class II HEPD); conditions: read-out: Km,HEP; Fe(II), O2; product MPn instead of HMP

## O=P(O)(O)CCO [2-HEP, 2-hydroxyethylphosphonate]
[1]
  Km,HEP: very similar to those of purified wild-type SaHEPD (Fig. S6 and S7, Table S2)
[2]
  Km: 15 ± 2 µM
